Results from patent US12492403B2, “Aptamers and the use thereof in the treatment of cancer” (FUNDACIÓN PARA LA INVESTIGACIÓN BIOMÉDICA DEL HOSPITAL …, priority 2018, dated 2025).

System: orthotopic xenograft of MDA-MB-231 cells
Experiment: In vivo efficacy in orthotopic xenograft mouse model
Design: species or system nude mice
Method: FIGS. 19A-19D. In vivo efficacy of apMNKQ2 in an orthotopic xenograft mouse model of MDA-MB-231 cells. (A) Evolution of the weight of the mouse over days of treatment with apMNKQ2 (FIG. 19A). (B) Relative tumor volume (RTV) over days of treatment (FIG. 19B). (C) Tumor weight after sacrificing the animal (FIG. 19C). (D) Immunohistochemical determination of proliferating cell nuclear antigen (PCNA) levels (FIG. 19D). The analysis of the positive nuclei was performed with the imageJ program. The boxes represent the mean±the maximum and minimum of 5-8 animals (*p<0.05 with respect to the control group).
FIGS. 20A-20D. Activation of apoptosis and expression of EMT markers in tumors from the mice with an orthotopic xenograft of MDA-MB-231 cells of FIG. 19. Immunodetection with specific antibodies by SDS-PAGE 12% of “cleaved” PARP ([…]), a-Spectrin (FIG. 20B) and the anti-apoptotic protein MCL1 (FIG. 20C) in tissue of mice treated with 1.8 mg/Kg of apMNKQ2 or with the vehicle. Expression levels of occludin (epithelial status marker) and FSP1 (mesenchymal marker) in tissue of mice treated with 1.8 mg/kg of apMNKQ2 or with the vehicle using qPCR (FIG. 20D). The values obtained were normalized with respect to β-actin. The boxes represent the mean±the maximum and the minimum of 4-5 animals (*p<0.05, **p<0.01 with respect to the control group).
For transfection in the in vivo model, the in vivo-jetPEI® transfection system (Polyplus, France) was used according to the manufacturer's instructions. The aptamer and jetPEI® reagent were separately diluted in glucose for the subsequent addition of the jetPEI® complex to that of the aptamer, such that the final glucose concentration is 5%. It was added to the cultures or injected into animals according to the assay.
Total RNA was obtained from cells using the NucleoZOL reagent ([…]-NAGEL, Germany) according to the manufacturer's instructions. Obtained RNA purity and integrity analyses were performed using the Experion™ RNA HighSens Analysis Kit chip (BioRad, USA). For the quantitative analysis of the mRNA levels, cDNAs were obtained with the SensiFAST™ cDNA synthesis kit (Bioline, United Kingdom) and real-time PCR was carried out in an IQ5 thermocycler (BioRad, USA) with the FastGene IC Green 2×qPCR Universal Mix kit (NIPPON Genetics, Germany).
In vivo assays were performed with nude mice inoculated with MDA-MB-231 cells and orthotopic tumors were generated. When these tumors reached a volume of 100 mm^3, the mice were randomly distributed into two groups of 9 animals. The treated group (1.8 mg/kg) was intravenously injected with 100 μl of 5% glucose containing 46 μg (5 nmol) of apMNKQ2 and 5.6 μl of jetPEI® transfectant (N/P ratio of 6) three times a week. The control group was injected with the 5% glucose solution containing the same volume of in vivo-jetPEI® reagent and aptamer buffer. As monitoring parameters, the tumor volume, assuming they are ellipsoids, and the weight of the animals were measured. At 18 days, the animals were sacrificed and the tumors were weighed and divided into two fragments, one to be frozen and another for fixing and inclusion in paraffin.
The immunohistochemical determination of the proliferating cell nuclear antigen (PCNA), sections of the paraffinized samples were made and they were then deparaffinized and rehydrated. The antigen was unmasked by incubating the sections in a 10 mM citrate buffer in a pressure cooker at maximum pressure for 2 minutes. After performing two quick washes with distilled water and two 5-minute washes with TBS, the sections were incubated in a blocking solution (3% fetal bovine serum in TBS with 0.05% triton X-100) for 30 minutes at room temperature. The samples were then incubated with the primary antibody PCNA (Santa Cruz Biotechnology, USA) at a dilution of 1:100 at room temperature overnight. […]

[1] = tumors of mice treated with 1.8 mg/kg vs vehicle

Substance: 5′TGGGGTGGGCGGGCGGGGGTGGGGGTGGT-3′ (DNA, backbone and methylation of C not given here; further chemistry not fully specified) [apMNKQ2]
- decrease of cell proliferation in the tumor (PCNA immunohistochemistry) with respect to the control group (1.8 mg/kg intravenously three times a week, 18 days): 50%
- decrease of the weight of the tumor after sacrificing the animals (1.8 mg/kg intravenously three times a week, 18 days, not statistically significant): 27%
- weight of the mice (1.8 mg/kg intravenously with jetPEI three times a week, 18 days): no changes
- relative size of the tumor (relative tumor volume) vs control group (intravenous with jetPEI three times a week, statistically significant at 7 and 18 days of treatment): smaller
- apoptosis in tumors (cleaved PARP, α-spectrin, MCL1 immunodetection) (tumors of mice treated with 1.8 mg/Kg vs vehicle): apoptotic effect
- mRNA levels of the mesenchymal marker FSP1 in tumors (qPCR) [1]: decrease (although not significant)
- occludin epithelial marker expression in tumors (qPCR) [1]: increases significantly
